Measured values reported in patent US20220022513A1 (INTERNATIONAL FLAVORS & FRAGRANCES INC., priority 2018, published 2022).

Columns and labels:
Type in all cases: in vivo
[1] = Sensory evaluation of sebacic acid and traumatic acid in sweetened milk; conditions: for sweetness and mouthfeel of sweetened milk: 2 ppm (each) in sweetened milk; for Taste Evaluation: 2 ppm (each) in sweetened milk (2% fat milk with 2% sucrose), versus base
Procedure: Sweetened milk (2% fat milk with 2% sucrose) was prepared and used as a base solution (“base”).

[2] = Sensory evaluation of sebacic acid at different amounts in sugar water
Procedure: Sugar water (4% sucrose in drinking water) was prepared and used as a base solution.

[3] = Descriptive sensory evaluation (taste modulation) of sebacic acid in different applications
Procedure: Descriptive sensory evaluations were carried out using different amounts of sebacic acid in different applications.

Compound | sweetness and mouthfeel of sweetened milk [1] | Taste Evaluation [1] | Taste Evaluation ([2]; 0.02 ppm in sugar water (4% sucrose in drinking water)) | Taste Evaluation ([2]; 1000 ppm in sugar water (4% sucrose in drinking water)) | Taste Evaluation ([3]; 7.5 ppm in 3% Sugar-Sweetened Full Fat Milk) | Taste Evaluation ([3]; 7.5 ppm in Mixed Berry Yogurt Smoothie (1% Fat, 9% Sugar, 3% Protein)) | Taste Evaluation ([3]; 15 ppm in Strawberry Flavored Yogurt (5% Sugar, 0.4% Fat, 8.7 Grams Protein)) | Taste Evaluation ([3]; 40 ppm in 3% Sugar + 0.05% Citric Acid Water Solution) | Taste Evaluation ([3]; 40 ppm in Water, compared to same application without sebacic acid)
O=C(O)/C=C/CCCCCCCCC(=O)O [Traumatic Acid, traumatic acid] | increased sweetness and mouthfeel | Sweeter and more mouthfeel |  |  |  |  |  |  | 
O=C(O)CCCCCCCCC(=O)O [Sebacic acid, sebacic acid] | increased sweetness and mouthfeel | Sweeter and more mouthfeel | Slight sweet and mouthfeel | Strong sweet and mouthfeel | Increases fatty perception | Cuts sour end, increased | Sweet up front, more | Fatty and oily | Fatty and oily
